Results from article PMC6270304, “Synthesis, Structure and Cytotoxic Activity of New Acetylenic Derivatives of Betulin” (Molecules, 2013).
In brackets after ≈: the same amount, converted by molar mass.

Legend:
[1] = tested on: Balb3T3 (normal mouse fibroblasts); experiment: Antiproliferative assay in vitro (SRB); assay type: cell-based
Protocol: (§1) Cytotoxic activities of all newly synthesized compounds including betulin (1) were tested in SRB or MTT (in the case of leukemia cells) assay for their antiproliferative activity in vitro against three human cancer cell lines: SW707 (colorectal adenocarcinoma), CCRF/CEM (leukemia), T47D (breast cancer), and murine leukemia P388 as well as Balb3T3 normal fibroblasts cell lines. […] A value of less than 4 μg/mL was considered as an antiproliferative activity criterion for synthetic compounds [31].
(§2) The following established in vitro cell lines were applied: SW707 (human colorectal adenocarcinoma), CCRF/CEM (human leukemia), T47D (human breast cancer), P388 (mouse leukemia) and Balb3T3 (normal mouse fibroblasts). All lines were obtained from the American Type Culture Collection (Rockville, MD, USA) and maintained at the Cell Culture Collection of the Institute of Immunology and Experimental Therapy (Wroclaw, Poland).
(§3) Twenty-four hours before addition of the tested agents, the cells were plated in 96-well plates (Sarstedt, Numbrecht, Germany) at a density of 10^4 cells per well in 100 μL of culture medium. The cells were cultured in the opti-MEM medium supplemented with 2 mM glutamine (Gibco, Grand Island, NY, USA), streptomycin (50 μg/mL), penicillin (50 U/mL) (both antibiotics from Polfa, Tarchomin, Poland) and 5% fetal calf serum (Gibco). The cell cultures were maintained at 37 °C in humid atmosphere saturated with 5% CO2.
(§4) The compounds were dissolved in DMSO and culture medium (1:9) to the concentration of 1 mg/mL, and subsequently diluted in culture medium to reach the required concentrations (ranging from […]).
(§5) The in vitro cytotoxic effect of all agents was examined using the SRB assay for adherent cells and MTT assay for leukemia cells as described by Wietrzyk et al.. Each compound in given concentration was tested in triplicates in each experiment, which was repeated 3–5 times.

[2] = tested on: SW707 (human colorectal adenocarcinoma); experiment: Antiproliferative assay in vitro (SRB); assay type: cell-based
Protocol: as §1, §2, §3, §4, §5

[3] = tested on: T47D (human breast cancer); experiment: Antiproliferative assay in vitro (SRB); assay type: cell-based
Protocol: as §1, §2, §3, §4, §5

[4] = tested on: CCRF/CEM (human leukemia); experiment: Antiproliferative assay in vitro (MTT); assay type: cell-based; settings: Homo sapiens, CCRF-CEM, read-out: Cytotoxic activity IC50, Human CCRF/CEM
Protocol: as §1, §2, §3, §4, §5

P388 (mouse leukemia) = experiment: Antiproliferative assay in vitro (MTT); assay type: cell-based
Protocol: as §1, §2, §3, §4, §5

[5] = tested on: investigated cancer cell lines (T47D, CCRF/CEM, SW707, P388, Balb3T3); experiment: cells; assay type: cell-based, human and murine
Protocol: as §1, §2, §3, §4, §5

[6] = Antiproliferative assay in vitro (SRB); assay type: cell-based, mouse; settings: mouse; Balb3T3 normal fibroblasts; SRB; Neg = negative in the concentration used; read-out: Cytotoxic activity IC50, Murine Balb3T3
Protocol: as §1, §2, §3, §4, §5

SMILES | Cytotoxic activity IC50, Murine Balb3T3 [1] | Cytotoxic activity IC50, Human SW707 [2] | Cytotoxic activity IC50, Human T47D [3] | IC50 [4] [µg/mL] | Cytotoxic activity IC50, Murine P388 (P388 (mouse leukemia)) | cytotoxic activity in words [5] | melting point [°C] | IC50 [6] [µg/mL] | IC50 ([2]; Homo sapiens, SW707, read-out: Cytotoxic activity IC50, Human SW707) [µg/mL] | IC50 ([3]; Homo sapiens, T47D, read-out: Cytotoxic activity IC50, Human T47D) [µg/mL] | IC50 (P388 (mouse leukemia); Mus musculus, P388, read-out: Cytotoxic activity IC50, Murine P388) [µg/mL] | selectivity index (SI) (P388 (mouse leukemia); ratio IC50 of normal fibroblast (Balb3T3) / IC50 on P388) | IC50 ([5]; Mus musculus, all cell lines except leukemia P388, read-out: IC50 values range over investigated cell lines) [µg/mL]
C=C(C)C1CC[C@]2(COC(=O)C#Cc3ccccc3)CC[C@]3(C)C(CCC4[C@@]5(C)CC[C@H](O)C(C)(C)C5CC[C@]43C)C12 (stereo partly drawn) [Compound 5b, 28-O-Phenylpropynoylbetulin] | Neg | Neg | Neg | 49 ± 9.8 (≈ 85.8 µM) | Neg | inactive | 204 to 206 | – | – | – | – | – | –
C=C(C)[C@@H]1CC[C@]2(CO)CC[C@]3(C)[C@H](CC[C@@H]4[C@@]5(C)CC[C@H](O)C(C)(C)[C@@H]5CC[C@]43C)[C@@H]12 [Compound 1, lup-20(29)-ene-3β,28-diol, reference compound] | – | – | – | 10.9 ± 5.5 (≈ 24.6 µM) | – | – | – | 47.3 ± 7.9 (≈ 107 µM) | 22.9 ± 15.4 (≈ 51.7 µM) | 32.4 ± 10.7 (≈ 73.2 µM) | 5.5 ± 3.3 (≈ 12.4 µM) | 8.6 | 10.9 to 47.3 (≈ 24.6 to 107 µM)
C=C(C)C1CC[C@]2(COC(=O)C#Cc3ccccc3)CC[C@]3(C)C(CCC4[C@@]5(C)CC[C@H](OC(=O)C#Cc6ccccc6)C(C)(C)C5CC[C@]43C)C12 (stereo partly drawn) [Compound 6b, 3,28-O,O'-Di(phenylpropynoyl)betulin] | Neg | Neg | Neg | 66 ± 2.8 (≈ 94.4 µM) | Neg | inactive | 91 to 92 | – | – | – | – | – | –
